Measurements as given in US7994140B2, “Classes of compounds that interact with GPCRs” (Alchemia Limited, priority 2002, dated 2011).

Target: T1, MC4 (Homo sapiens, UniProt P32245)
T1 construct: purchased Perkin Elmer BioSignal; host or cells: HEK 293
Test: GPCR radioligand binding (RLB) assay, melanocortin MC4, [125I]NDP-αMSH
Conditions: for MC4 Inhibition at 4.0 Micromolar: Example Library 10; for MC4 inhibition at 10 micromolar: 10 micromolar compound, recombinant human receptor membranes (HEK 293)
Description: Recombinant human receptors expressed in HEK 293 cells were used for all experiments. Receptor membrane preparations were purchased from Perkin Elmer BioSignal. The labelled ligand used in somatostatin GPCR RLB assays was [^125I]SST-14 and in melanocortin assays was [^125I]NDP-αMSH. All assays were done in a 96-well plate format using either glass fiber filter mats or filter plates. All reagents purchased were of the highest quality.
Specific assay buffer, incubation and washing conditions were optimized for each receptor however they all followed the same general format. The procedures for both filter mat and filter plate formats are based on the receptor manufacturers recommendations or those described extensively in the literature. The procedures are briefly outlined below.
In assays where filter mats are used we incubate receptor membranes, assay buffer and [^125I] labelled ligand in 96 well microplates. Add compounds to incubation mixture and continue incubation for optimized period. Presoak Filter mat GF/B in 0.5% PEI for ˜2 hr at 4° C. On completion of assay mixture incubation add additional 100 μL/well of assay buffer immediately prior to filtration. Filter the assay mixture onto the GF/B filter mat using a cell harvester. Dry the filter mats prior to sealing them into a scintillation counting bag with scintillant. Radioactivity in each well is detected by liquid scintillation counting.
In assays where filter plates are used Multiscreen glass fiber filter plates (Millipore, Cat No MAFCNOB10) are precoated with 0.5% PEI for ˜2 hr at 4° C. All wells are then washed with 200 µl/well assay buffer and filtered using the Multiscreen Separation System. Subsequently receptor membranes, assay buffer and labelled ligands are added to the wells and equilibrated. Compounds for testing are then added to the mixture and incubation is continued for an optimized time. Plates are then put into the Multiscreen Separation System and the assay mixture is filtered through the plate under vacuum. Each well is then washed several times with assay buffer. Plates are then dried prior to putting sealing tape onto the bottom of the plate. Scintillant is added to each well and radioactivity measured by liquid scintillation counting.
Raw data was analysed according to standard methods using either GraphPad Prism software or IDDBS ActivityBase software.

T1 sequence (P32245 whole entry): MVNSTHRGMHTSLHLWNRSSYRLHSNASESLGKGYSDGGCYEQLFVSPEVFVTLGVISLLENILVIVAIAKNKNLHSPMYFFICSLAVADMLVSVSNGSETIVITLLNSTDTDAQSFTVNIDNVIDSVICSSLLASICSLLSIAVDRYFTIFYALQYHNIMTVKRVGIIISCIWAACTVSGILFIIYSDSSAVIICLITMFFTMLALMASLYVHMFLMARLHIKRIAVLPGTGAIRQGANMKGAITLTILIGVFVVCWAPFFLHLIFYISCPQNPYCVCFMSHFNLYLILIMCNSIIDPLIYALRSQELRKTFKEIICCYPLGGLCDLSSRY

Row | SMILES | MC4 Inhibition at 4.0 Micromolar | MC4 inhibition at 10 micromolar
1 | NCCC(=O)N[C@H]1C(OCc2ccc3ccccc3c2)O[C@H](COCc2ccccc2)[C@@H](O)[C@@H]1OCc1ccccc1 (single isomer, unassigned) [Compound 362] | + (Indicates inhibition greater than . . . 50%) | 
2 | NCCC(=O)N[C@H]1C(OCc2ccc3ccccc3c2)O[C@H](COCc2ccccc2)[C@@H](O)[C@@H]1OCc1ccccc1 (single isomer, unassigned) [Compound 363] | + (Indicates inhibition greater than . . . 50%) | 
3 | NCCCC(=O)N[C@H]1C(OCc2ccc3ccccc3c2)O[C@H](COCc2ccc3ccccc3c2)[C@@H](O)[C@@H]1OCc1ccc(Cl)cc1 (single isomer, unassigned) [Compound 365] | + (Indicates inhibition greater than . . . 50%) | 
4 | NCCCC(=O)N[C@H]1C(OCc2ccc3ccccc3c2)O[C@H](COCc2ccc3ccccc3c2)[C@@H](O)[C@@H]1OCc1ccc(Cl)cc1 (single isomer, unassigned) [Compound 366] | + (Indicates inhibition greater than . . . 50%) | 
5 | NCCCC(=O)N[C@H]1C(OCc2ccc3ccccc3c2)O[C@H](COCc2ccc(Cl)cc2)[C@@H](O)[C@@H]1OCc1ccc(Cl)cc1 (single isomer, unassigned) [Compound 367] | + (Indicates inhibition greater than . . . 50%) | 
6 | NCCCC(=O)N[C@H]1C(OCc2ccc3ccccc3c2)O[C@H](COCc2ccc(Cl)cc2)[C@@H](O)[C@@H]1OCc1ccc(Cl)cc1 (single isomer, unassigned) [Compound 368] | + (Indicates inhibition greater than . . . 50%) | 
7 | NCCCC(=O)N[C@H]1C(OCc2ccc3ccccc3c2)O[C@H](COCc2ccc(Cl)cc2)[C@@H](O)[C@@H]1OCc1ccc2ccccc2c1 (single isomer, unassigned) [Compound 370] | + (Indicates inhibition greater than . . . 50%) | 
8 | NCCCC(=O)N[C@H]1C(OCc2ccc3ccccc3c2)O[C@H](COCc2ccc(Cl)cc2)[C@@H](O)[C@@H]1OCc1ccc2ccccc2c1 (single isomer, unassigned) [Compound 371] | + (Indicates inhibition greater than . . . 50%) | 
9 | NCCCC(=O)N[C@H]1C(OCc2ccc3ccccc3c2)O[C@H](COCc2ccc3ccccc3c2)[C@@H](O)[C@@H]1OCc1ccccc1 (single isomer, unassigned) [Compound 372] | + (Indicates inhibition greater than . . . 50%) | 
10 | NCCCC(=O)N[C@H]1C(OCc2ccc3ccccc3c2)O[C@H](COCc2ccc3ccccc3c2)[C@@H](O)[C@@H]1OCc1ccccc1 (single isomer, unassigned) [Compound 373] | + (Indicates inhibition greater than . . . 50%) | 
11 | NCCCC(=O)N[C@H]1C(OCc2ccc(Cl)cc2)O[C@H](COCc2ccc3ccccc3c2)[C@@H](O)[C@@H]1OCc1ccc2ccccc2c1 (single isomer, unassigned) [Compound 389] | + (Indicates inhibition greater than . . . 50%) | 
12 | NCCCC(=O)N[C@H]1C(OCc2ccc(Cl)cc2)O[C@H](COCc2ccc3ccccc3c2)[C@@H](O)[C@@H]1OCc1ccc2ccccc2c1 (single isomer, unassigned) [Compound 390] | + (Indicates inhibition greater than . . . 50%) | 
13 | NCCCC(=O)N[C@H]1C(OCc2ccc(Cl)cc2)O[C@H](COCc2ccccc2)[C@@H](O)[C@@H]1OCc1ccc2ccccc2c1 (single isomer, unassigned) [Compound 391] | + (Indicates inhibition greater than . . . 50%) | 
14 | NCCCC(=O)N[C@H]1C(OCc2ccc(Cl)cc2)O[C@H](COCc2ccccc2)[C@@H](O)[C@@H]1OCc1ccc2ccccc2c1 (single isomer, unassigned) [Compound 392] | + (Indicates inhibition greater than . . . 50%) | 
15 | NCCCC(=O)N[C@H]1C(OCc2ccc(Cl)cc2)O[C@H](COCc2ccc(Cl)cc2)[C@@H](O)[C@@H]1OCc1ccc2ccccc2c1 (single isomer, unassigned) [Compound 393] | + (Indicates inhibition greater than . . . 50%) | 
16 | NCCCC(=O)N[C@H]1C(OCc2ccc(Cl)cc2)O[C@H](COCc2ccc(Cl)cc2)[C@@H](O)[C@@H]1OCc1ccc2ccccc2c1 (single isomer, unassigned) [Compound 394] | + (Indicates inhibition greater than . . . 50%) | 
17 | COC[C@H]1OC(OCc2ccccc2)[C@H](NC(=O)CNC(=N)N)[C@@H](OCc2ccc(-c3ccccc3)cc2)[C@@H]1O (stereo partly drawn) [Compound 5] |  | + (Indicates inhibition greater than . . . 50%)
18 | COC[C@H]1OC(OCCc2ccccc2)[C@H](NC(=O)CNC(=N)N)[C@@H](OCc2ccc(-c3ccccc3)cc2)[C@@H]1O (stereo partly drawn) [Compound 19] |  | + (Indicates inhibition greater than . . . 50%)

Row | SMILES | MC4 Inhibition at 4.0 Micromolar | MC4 inhibition at 10 micromolar
19 | COC[C@H]1OC(OCCc2ccccc2)[C@H](NC(=O)CCNC(=N)N)[C@@H](OCc2ccc(-c3ccccc3)cc2)[C@@H]1O (stereo partly drawn) [Compound 20] |  | + (Indicates inhibition greater than . . . 50%)
20 | CO[C@H]1[C@H](O)[C@@H](COCc2ccc(-c3ccccc3)cc2)OC(OCc2ccc(-c3ccccc3)cc2)[C@@H]1NC(=O)CCCNC(=N)N (stereo partly drawn) [Compound 58] |  | + (Indicates inhibition greater than . . . 50%)
21 | CO[C@H]1[C@H](O)[C@@H](COCc2ccc3ccccc3c2)OC(OCc2ccc(-c3ccccc3)cc2)[C@@H]1NC(=O)CNC(=N)N (stereo partly drawn) [Compound 59] |  | + (Indicates inhibition greater than . . . 50%)
22 | COC1C(O)C(COCc2ccc3ccccc3c2)OC(OCc2ccc(-c3ccccc3)cc2)C1NC(=O)CCCNC(=N)N (stereo not drawn) [Compound 62] |  | + (Indicates inhibition greater than . . . 50%)
23 | COC1C(O)C(COCc2ccc(Cl)cc2)OC(OCc2ccc(-c3ccccc3)cc2)C1NC(=O)CNC(=N)N (stereo not drawn) [Compound 63] |  | + (Indicates inhibition greater than . . . 50%)
24 | COC1C(O)C(COCc2ccc(Cl)cc2)OC(OCc2ccc(-c3ccccc3)cc2)C1NC(=O)CCNC(=N)N (stereo not drawn) [Compound 64] |  | + (Indicates inhibition greater than . . . 50%)
25 | COC1C(O)C(COCc2ccc(Cl)cc2)OC(OCc2ccc(-c3ccccc3)cc2)C1NC(=O)CCCN (stereo not drawn) [Compound 65] |  | + (Indicates inhibition greater than . . . 50%)
26 | COC1C(O)C(COCc2ccc(Cl)cc2)OC(OCc2ccc(-c3ccccc3)cc2)C1NC(=O)CCCNC(=N)N (stereo not drawn) [Compound 66] |  | + (Indicates inhibition greater than . . . 50%)
27 | COC1C(O)C(COCc2ccc(-c3ccccc3)cc2)OC(OCc2ccc3ccccc3c2)C1NC(=O)CNC(=N)N (stereo not drawn) [Compound 67] |  | + (Indicates inhibition greater than . . . 50%)
28 | COC1C(O)C(COCc2ccc(-c3ccccc3)cc2)OC(OCc2ccc3ccccc3c2)C1NC(=O)CCNC(=N)N (stereo not drawn) [Compound 68] |  | + (Indicates inhibition greater than . . . 50%)
29 | COC1C(O)C(COCc2ccc(-c3ccccc3)cc2)OC(OCc2ccc3ccccc3c2)C1NC(=O)CCCNC(=N)N (stereo not drawn) [Compound 70] |  | + (Indicates inhibition greater than . . . 50%)
30 | COC1C(O)C(COCc2ccc3ccccc3c2)OC(OCc2ccc3ccccc3c2)C1NC(=O)CNC(=N)N (stereo not drawn) [Compound 71] |  | + (Indicates inhibition greater than . . . 50%)
31 | COC1C(O)C(COCc2ccc3ccccc3c2)OC(OCc2ccc3ccccc3c2)C1NC(=O)CCNC(=N)N (stereo not drawn) [Compound 72] |  | + (Indicates inhibition greater than . . . 50%)
32 | COC1C(O)C(COCc2ccc3ccccc3c2)OC(OCc2ccc3ccccc3c2)C1NC(=O)CCCNC(=N)N (stereo not drawn) [Compound 74] |  | + (Indicates inhibition greater than . . . 50%)
33 | COC1C(O)C(COCc2ccc(Cl)cc2)OC(OCc2ccc3ccccc3c2)C1NC(=O)CNC(=N)N (stereo not drawn) [Compound 75] |  | + (Indicates inhibition greater than . . . 50%)
34 | COC1C(O)C(COCc2ccc(Cl)cc2)OC(OCc2ccc3ccccc3c2)C1NC(=O)CCNC(=N)N (stereo not drawn) [Compound 76] |  | + (Indicates inhibition greater than . . . 50%)
35 | COC1C(O)C(COCc2ccc(Cl)cc2)OC(OCc2ccc3ccccc3c2)C1NC(=O)CCCNC(=N)N (stereo not drawn) [Compound 78] |  | + (Indicates inhibition greater than . . . 50%)
36 | COC1C(O)C(COCc2ccc(-c3ccccc3)cc2)OC(OCc2ccccc2)C1NC(=O)CCCNC(=N)N (stereo not drawn) [Compound 79] |  | + (Indicates inhibition greater than . . . 50%)
